Test results: paper PMC7875316 (Biochemistry, 2020)

Molecular target: T1, ClpL (Streptococcus mutans, UniProt Q8DUH3)
T1 sequence (Q8DUH3 1-701): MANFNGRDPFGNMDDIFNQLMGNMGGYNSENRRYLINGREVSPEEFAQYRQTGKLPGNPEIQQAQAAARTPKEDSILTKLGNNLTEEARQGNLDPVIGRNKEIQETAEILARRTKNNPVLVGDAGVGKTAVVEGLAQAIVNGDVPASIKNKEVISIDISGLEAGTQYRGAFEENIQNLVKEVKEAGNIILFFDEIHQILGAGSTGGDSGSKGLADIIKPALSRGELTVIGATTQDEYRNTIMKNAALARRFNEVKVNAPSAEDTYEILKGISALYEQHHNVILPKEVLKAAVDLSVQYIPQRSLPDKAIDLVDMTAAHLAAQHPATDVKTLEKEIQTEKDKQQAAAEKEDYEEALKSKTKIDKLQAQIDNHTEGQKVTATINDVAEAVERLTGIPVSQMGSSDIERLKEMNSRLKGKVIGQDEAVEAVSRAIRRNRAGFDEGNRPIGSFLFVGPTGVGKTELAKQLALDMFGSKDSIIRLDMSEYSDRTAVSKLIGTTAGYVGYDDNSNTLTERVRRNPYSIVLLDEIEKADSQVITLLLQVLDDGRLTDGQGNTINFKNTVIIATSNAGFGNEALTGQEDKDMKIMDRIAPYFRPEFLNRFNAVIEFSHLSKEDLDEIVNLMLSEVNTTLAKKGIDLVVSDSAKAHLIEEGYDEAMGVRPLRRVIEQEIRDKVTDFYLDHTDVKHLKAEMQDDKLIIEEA
Experiment: protection from limited trypsin proteolysis, SDS-PAGE
Type: binding
Details: 1 mM ADP (legend; methods say 5 mM), 20 mM MgCl2, room temperature

Q: `Nc1ncnc2c1ncn2[C@@H]1O[C@H](COP(=O)(O)OP(=O)(O)O)[C@@H](O)[C@H]1O` [ADP] was tested. Which “protection from limited trypsin proteolysis, SDS-PAGE” value did it give?
A: Addition of ATP or ADP dramatically increased the stability of ClpL to trypsin digestion.
